Assay results from publication PMC4060991, “The Human Orphan Nuclear Receptor Tailless (TLX, NR2E1) Is Druggable” (PLoS ONE, 2014).
Where two headings read alike, the source gives them in different places.

Legend:
Type in all cases: cell-based
human PNR (NR2E3) LBD = molecular target: T1, human PNR (NR2E3) LBD (Homo sapiens, UniProt Q9Y5X4); test: GAL4-PNR LBD luciferase transactivation assay in HeLa cells; conditions: 10 µM, 24 h
T1 construct: expressed in transfected cells; host or cells: HeLa
T1 sequence (Q9Y5X4 192-410): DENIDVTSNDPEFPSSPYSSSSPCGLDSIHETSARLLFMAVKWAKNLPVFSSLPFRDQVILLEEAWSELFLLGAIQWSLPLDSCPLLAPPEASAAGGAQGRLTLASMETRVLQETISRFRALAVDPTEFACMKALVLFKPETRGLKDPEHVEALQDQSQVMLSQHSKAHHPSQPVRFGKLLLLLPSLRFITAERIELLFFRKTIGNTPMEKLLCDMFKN
Experimental: For the transactivation assays involving human PNR (Photoreceptor cell-specific Nuclear Receptor, NR2E3) LBD, we used an already described pBIND-PNR LBD (residues 192–410, [37]) plasmid (gift from Dr. H. Eric Xu, Van Andel Institute). The transient co-transfections of HeLa cells with vectors encoding either Gal4DBD or pBIND-PNR LBD fusion (both at 50 ng/well), pGL4.35 reporter gene (200 ng/well) and renilla luciferase gene (50 ng/well, internal control) were performed in batches of 10^5 cells seeded into 12-well tissue culture plates. Twenty-four hours after the transfections, cells were treated with either DMSO (0.1%, control) or compounds ccrp1, ccrp2 or ccrp3 at 10 µM. Following 24 h incubation, luciferase activities in each well were assessed as described above. Cells transfected with Gal4 DBD vector served as a control for PNR independent effects.

COUP-TFII LBD = molecular target: T2, COUP-TFII LBD (Homo sapiens, UniProt P24468); test: GAL4 DBD-COUP-TFII LBD luciferase transactivation assay in HeLa cells; conditions: 10 µM, 24 h, alone or in competition with 9-cis retinoic acid 5 µM
T2 construct: expressed in transfected cells; host or cells: HeLa
T2 sequence (P24468 177-403 limits assumed): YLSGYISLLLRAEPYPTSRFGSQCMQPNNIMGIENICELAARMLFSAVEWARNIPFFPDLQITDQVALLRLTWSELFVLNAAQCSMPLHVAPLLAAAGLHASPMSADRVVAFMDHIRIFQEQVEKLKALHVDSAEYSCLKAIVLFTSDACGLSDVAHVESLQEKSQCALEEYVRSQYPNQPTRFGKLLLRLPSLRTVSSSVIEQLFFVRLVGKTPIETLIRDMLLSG
Experimental: For the transactivation assays with the GAL4 DBD-COUP-TFII LBD plasmid ([28], gift from Dr. H. Eric Xu, Van Andel Institute), we transiently transfected in batches of 10^5 HeLa cells seeded into 12-well tissue culture plates vectors encoding either Gal4 DBD or Gal4 DBD-COUP-TFII LBD fusion (both at 100 ng/well), pGL4.35 reporter gene (200 ng/well) and renilla luciferase gene (100 ng/well, internal control). At 24 h after the transfections, cells were treated with either DMSO (0.1%, control) or compounds ccrp1, ccrp2 or ccrp3 at 10 µM, in the absence or the presence of 9-cis retinoic acid (RA, 5 µM). Following 24 h incubation, luciferase activities in each well were assessed as described above. Cells transfected with Gal4 DBD vector served as a control for COUP-TFII independent effects.

TLX LBD = TLX LBD (Homo sapiens, UniProt Q9Y466); test: GAL4-TLX LBD luciferase transactivation assay in HeLa cells; design: expressed in transfected cells; host or cells: HeLa
Chain of TLX LBD (Q9Y466 187-385): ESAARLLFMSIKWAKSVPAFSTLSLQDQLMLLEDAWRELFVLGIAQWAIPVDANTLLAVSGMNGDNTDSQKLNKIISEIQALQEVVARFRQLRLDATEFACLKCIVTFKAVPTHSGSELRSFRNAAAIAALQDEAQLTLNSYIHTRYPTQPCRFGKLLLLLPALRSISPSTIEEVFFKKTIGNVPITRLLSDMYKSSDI
Experimental: The luciferase reporter pGL4.35 [luc2P/9XGAL4UAS/Hygro] vector was obtained from Promega. pBIND-TLX LBD was fully sequenced (ACGT, Inc.).
HeLa cells were maintained in D-MEM High Glucose (Hyclone) supplemented with 10% charcoal:dextran stripped FBS (Hyclone) and 1x Pen/Strep antibiotics (Life Technologies). Transient transfections were carried out in batches on 100,000 cells seeded into 12-well tissue culture plates. The co-transfections were performed using the TransFectin Lipid reagent (Bio-Rad) with approximately 10 ng/well of Gal4 DBD (gift from Phuong Nguyen, Fletterick Laboratory, UCSF) or GAL4-TLX LBD, 10 ng/well of renilla luciferase gene (Promega) for internal control and 200 ng/well of pGL4.35 reporter gene (containing an upstream Gal4 Upstream Activator Sequence and the luciferase gene, Promega). Approximately, 3 h after transfections, cells were treated with compounds of interest at different concentrations, or solvent (DMSO, 0.1%) in DMEM containing no fetal bovine serum or antibiotics. After a 16-h incubation, luciferase activities were assessed using Dual Luciferase assay reagent (Promega). Luciferase activities were calculated by normalizing firefly luciferase to renilla luciferase signal. […] Cells transfected with Gal4 DBD vector served as a control for TLX independent effects.
All measurements were performed in triplicates and repeated in three independent experiments. Prism 6 was used to calculate EC50.

ERβ LBD = ERβ LBD (Homo sapiens, UniProt Q92731); test: Gal4 DBD-ERβ LBD luciferase transactivation assay in HeLa cells; design: vectors encoding either Gal4 DBD or Gal4 DBD-ERβ LBD fusion; expressed in transfected cells; host or cells: HeLa; conditions: 10 µM, 24 h, alone or in competition with E2 100 nM
Chain of ERβ LBD (Q92731 264-498 limits assumed): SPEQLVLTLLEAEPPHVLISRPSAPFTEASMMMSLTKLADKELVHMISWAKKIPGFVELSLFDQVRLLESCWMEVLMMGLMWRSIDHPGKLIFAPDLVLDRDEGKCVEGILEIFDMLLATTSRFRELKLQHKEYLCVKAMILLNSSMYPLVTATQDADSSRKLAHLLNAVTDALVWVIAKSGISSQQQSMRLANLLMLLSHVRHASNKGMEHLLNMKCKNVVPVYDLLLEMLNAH
Experimental: For ERβ, transient cotransfections of HeLa cells with vectors encoding either Gal4 DBD or Gal4 DBD-ERβ LBD fusion (gift from Dr. Stefan Andersson, University of Houston, deceased), both at 10 ng/well, constructs for Gal4-E1B promoter linked to a luciferase reporter gene (200 ng/well) and renilla luciferase gene (10 ng/well, internal control) were performed in batches of 10^5 cells seeded into 12-well tissue culture plates. At 24 h after the transfections, cells were treated with either DMSO (0.1%, control) or ccrp1; ccrp2 and ccrp3 at 10 µM, in the presence or absence of estradiol (E2, 100 nM), in the medium containing no fetal bovine serum. Following 24 h incubation, luciferase activities in each well were assessed as described above. Cells transfected with Gal4 DBD vector served as a control for ERβ independent effects.

[1] = HeLa cells, 16 h treatment, read-out: EC50 for enhancement of TLX transcriptional repression

Row | Compound | effect on PNR transcriptional activity (human PNR (NR2E3) LBD) | effect on COUP-TFII luciferase activity (COUP-TFII LBD) | EC50 (TLX LBD) [nM] | effect on ERβ luciferase activity (ERβ LBD) | EC50 (TLX LBD; [1]) [nM]
1 | Cc1cc(C(=O)N2CCN(C(c3ccccc3)c3ccccc3)CC2)nn1C [ccrp2, 1-(1,5-dimethylpyrazole-3-carbonyl)-4-(diphenylmethyl)piperazine] | None of the compounds affected PNR transcriptional activity | No effect on luciferase activity was detected | 1000 ± 300 | No effect on luciferase activity was detected | –
2 | CC(C)c1c(CN(C)C(C)Cc2ccccc2)n(C)n(-c2ccccc2)c1=O (stereo not drawn) [ccrp1, Famprofazone] | None of the compounds affected PNR transcriptional activity | No effect on luciferase activity was detected | – | No effect on luciferase activity was detected | 9200 ± 1000
3 | CC(=O)[C@H]1CC[C@H]2[C@@H]3C=CC4=CC(=O)CC[C@@]4(C)[C@@H]3CC[C@]12C [ccrp3, Dydrogesterone] | None of the compounds affected PNR transcriptional activity | No effect on luciferase activity was detected | – | No effect on luciferase activity was detected | 250 ± 100
